These compounds were tested against T1, wild-type HIV reverse transcriptase (Human immunodeficiency virus type 1 group M subtype B, UniProt P04585) (assay: Activity on wild type reverse transcriptase (Table 1 IC50 WT)). Settings: not given.
T1 construct: wild-type and four mutant HIV reverse transcriptases
Assay type: biochemical
Protocol: Using similar methods as described above, 2-[5-bromo-4-(4-cyclopropylnaphthalen-1-yl)-4H-[1,2,4]triazol-3-ylsulfanyl]-N-(2-methyl-4-sulfamoylphenyeacetamide and 2-[5-bromo-4-(4-ethylnaphthalen-1-yl)-4H-[1,2,4]triazol-3-ylsulfanyl]-N-(2-chloro-4-sulfamoylphenyl)-acetamide were synthesized, as were the N-4-carbamyl analog, 2-[5-bromo-4-(4-ethyl-naphthalen-1-yl)-4H-[1,2,4]triazol-3-ylsulfanyl]-N-(2-chloro-4-carbamoylphenyl)-acetamide and the N-4-carboxyl analog. Each of the compounds was tested against a panel of mutant HIV reverse transcriptases, including 20 of the 22 of the mutants that are found in about 2% or more of the patient samples that are resistant to the most widely used non-nucleoside HIV-RT inhibitor efavirenz ((4S)-6-chloro-4-(cyclopropylethynyl)-1,4-dihydro-4-(trifluoromethyl)-2H-3,1-benzoxazin-2-one). […] In most cases both criteria were met. […] […].
Compounds of the invention were tested against the wild-type and four mutant HIV reverse transcriptases. The results are listed in Table 1 as EC50 (nM) and IC50 (nM). In the Table, A represents <50 nM, B is between 50 and 100 nM, and C is >100 nM. ND is not determined.

Row | SMILES | IC50
1 | O=C(CSc1nnc(Br)n1-c1c(Cl)cc(C2CCC2)c2ccccc12)Nc1ccc(C(=O)O)cc1Cl [compound 25] | < 50 nM
2 | O=C(CSc1nnc(Br)n1-c1ccc(C2CCC2)c2ccccc12)Nc1ccc(C(=O)O)cc1Cl [compound 26] | < 50 nM
3 | COc1cccc2c(-n3c(Br)nnc3SCC(=O)Nc3ccc(C(=O)O)cc3Cl)cccc12 [compound 27] | < 50 nM
4 | CCc1cc(C2CC2)ccc1-n1c(Br)nnc1SCC(=O)Nc1ccc(C(=O)O)cc1Cl [compound 29] | < 50 nM
5 | O=C(CSc1nnc(Br)n1-c1ccc(C2CC2)cc1C(F)(F)F)Nc1ccc(C(=O)O)cc1Cl [compound 30] | < 50 nM
6 | O=C(CSc1nnc(Br)n1-c1ccc(C2CC2)cc1Cl)Nc1ccc(C(=O)O)cc1Cl [compound 31] | < 50 nM
7 | O=C(CSc1nnc(Br)n1-c1cccc2c(OCC3CC3)cccc12)Nc1ccc(C(=O)O)cc1Cl [compound 32] | > 100 nM
8 | Cc1cc(C2CC2)cc(C)c1-n1c(Br)nnc1SCC(=O)Nc1ccc(C(=O)O)cc1Cl [compound 33] | < 50 nM
9 | NS(=O)(=O)c1ccc(NC(=O)CSc2nnc(C(F)F)n2-c2ccc3c4c(cccc24)CC3)c(Cl)c1 [compound 36] | < 50 nM
10 | NS(=O)(=O)c1ccc(NC(=O)CSc2nnc(Br)n2-c2ccc3c4c(cccc24)CC3)c(Cl)c1 [compound 37] | < 50 nM
11 | Cc1cc(S(N)(=O)=O)ccc1NC(=O)CSc1nnc(Br)n1-c1ccc2c3c(cccc13)CC2 [compound 38] | < 50 nM
12 | Cc1cc(S(N)(=O)=O)ccc1NC(=O)CSc1nnc(Br)n1-c1ccc(C2CC2)c2ccccc12 [compound 40] | < 50 nM
13 | CCc1ccc(-n2c(C)nnc2SCC(=O)Nc2ccc(S(N)(=O)=O)cc2C)c2c1CCCC2 [compound 41] | < 50 nM
14 | CCc1ccc(-n2c(C)nnc2SCC(=O)Nc2ccc(S(N)(=O)=O)cc2Cl)c2c1CCCC2 [compound 43] | < 50 nM
15 | NS(=O)(=O)c1ccc(NC(=O)CSc2nnc(C(F)F)n2-c2ccc(C3CC3)c3ccccc23)c(Cl)c1 [compound 44] | < 50 nM
16 | Cc1cc(S(N)(=O)=O)ccc1NC(=O)CSc1nnc(C)n1-c1ccc(C)c2c1CCCC2 [compound 45] | < 50 nM
17 | Cc1ccc(-n2c(C)nnc2SCC(=O)Nc2ccc(S(N)(=O)=O)cc2Cl)c2c1CCCC2 [compound 46] | < 50 nM
18 | CCc1ccc(-n2c(SCC(=O)Nc3ccc(S(N)(=O)=O)cc3Cl)nnc2C(F)F)c2c1CCCC2 [compound 47] | < 50 nM
19 | Cc1cc(S(N)(=O)=O)ccc1NC(=O)CSc1nnc(C(F)F)n1-c1ccc(C)c2c1CCCC2 [compound 48] | < 50 nM
20 | CCc1ccc(-n2c(CF)nnc2SCC(=O)Nc2ccc(S(N)(=O)=O)cc2C)c2ccccc12 [compound 49] | < 50 nM
21 | Cc1cc(C2CC2)c2ccccc2c1-n1c(Br)nnc1SCC(=O)Nc1ccc(S(N)(=O)=O)cc1Cl [compound 50] | < 50 nM

The compounds below were run against mutant HIV reverse transcriptases (Human immunodeficiency virus type 1, UniProt P12497, Y775L, cells depend on it) (assay: not given). Settings: not given.
Assay type: cell-based

Row | SMILES | EC50
22 | O=C(CSc1nnc(Br)n1-c1c(Cl)cc(C2CCC2)c2ccccc12)Nc1ccc(C(=O)O)cc1Cl [compound 25] | < 50 nM
23 | O=C(CSc1nnc(Br)n1-c1ccc(C2CCC2)c2ccccc12)Nc1ccc(C(=O)O)cc1Cl [compound 26] | < 50 nM
24 | COc1cccc2c(-n3c(Br)nnc3SCC(=O)Nc3ccc(C(=O)O)cc3Cl)cccc12 [compound 27] | > 100 nM
25 | CCc1cc(C2CC2)ccc1-n1c(Br)nnc1SCC(=O)Nc1ccc(C(=O)O)cc1Cl [compound 29] | > 100 nM
26 | O=C(CSc1nnc(Br)n1-c1ccc(C2CC2)cc1C(F)(F)F)Nc1ccc(C(=O)O)cc1Cl [compound 30] | > 100 nM
27 | O=C(CSc1nnc(Br)n1-c1ccc(C2CC2)cc1Cl)Nc1ccc(C(=O)O)cc1Cl [compound 31] | > 100 nM
28 | O=C(CSc1nnc(Br)n1-c1cccc2c(OCC3CC3)cccc12)Nc1ccc(C(=O)O)cc1Cl [compound 32] | > 100 nM
29 | Cc1cc(C2CC2)cc(C)c1-n1c(Br)nnc1SCC(=O)Nc1ccc(C(=O)O)cc1Cl [compound 33] | > 100 nM
30 | NS(=O)(=O)c1ccc(NC(=O)CSc2nnc(C(F)F)n2-c2ccc3c4c(cccc24)CC3)c(Cl)c1 [compound 36] | < 50 nM
31 | NS(=O)(=O)c1ccc(NC(=O)CSc2nnc(Br)n2-c2ccc3c4c(cccc24)CC3)c(Cl)c1 [compound 37] | < 50 nM
32 | Cc1cc(S(N)(=O)=O)ccc1NC(=O)CSc1nnc(Br)n1-c1ccc2c3c(cccc13)CC2 [compound 38] | < 50 nM
33 | Cc1cc(S(N)(=O)=O)ccc1NC(=O)CSc1nnc(Br)n1-c1ccc(C2CC2)c2ccccc12 [compound 40] | < 50 nM
34 | CCc1ccc(-n2c(C)nnc2SCC(=O)Nc2ccc(S(N)(=O)=O)cc2C)c2c1CCCC2 [compound 41] | > 100 nM
35 | CCc1ccc(-n2c(C)nnc2SCC(=O)Nc2ccc(S(N)(=O)=O)cc2Cl)c2c1CCCC2 [compound 43] | < 50 nM
36 | NS(=O)(=O)c1ccc(NC(=O)CSc2nnc(C(F)F)n2-c2ccc(C3CC3)c3ccccc23)c(Cl)c1 [compound 44] | < 50 nM
37 | Cc1cc(S(N)(=O)=O)ccc1NC(=O)CSc1nnc(C)n1-c1ccc(C)c2c1CCCC2 [compound 45] | 50 to 100 nM
38 | Cc1ccc(-n2c(C)nnc2SCC(=O)Nc2ccc(S(N)(=O)=O)cc2Cl)c2c1CCCC2 [compound 46] | < 50 nM
39 | CCc1ccc(-n2c(SCC(=O)Nc3ccc(S(N)(=O)=O)cc3Cl)nnc2C(F)F)c2c1CCCC2 [compound 47] | < 50 nM
40 | Cc1cc(S(N)(=O)=O)ccc1NC(=O)CSc1nnc(C(F)F)n1-c1ccc(C)c2c1CCCC2 [compound 48] | 50 to 100 nM
41 | CCc1ccc(-n2c(CF)nnc2SCC(=O)Nc2ccc(S(N)(=O)=O)cc2C)c2ccccc12 [compound 49] | > 100 nM
42 | Cc1cc(C2CC2)c2ccccc2c1-n1c(Br)nnc1SCC(=O)Nc1ccc(S(N)(=O)=O)cc1Cl [compound 50] | < 50 nM

The compounds below were run against mutant HIV reverse transcriptases (Human immunodeficiency virus type 1, UniProt P12497, Y768C, cells depend on it) (assay: not given). Settings: not given.
Assay type: cell-based

Row | SMILES | EC50
43 | O=C(CSc1nnc(Br)n1-c1c(Cl)cc(C2CCC2)c2ccccc12)Nc1ccc(C(=O)O)cc1Cl [compound 25] | < 50 nM
44 | O=C(CSc1nnc(Br)n1-c1ccc(C2CCC2)c2ccccc12)Nc1ccc(C(=O)O)cc1Cl [compound 26] | < 50 nM
45 | COc1cccc2c(-n3c(Br)nnc3SCC(=O)Nc3ccc(C(=O)O)cc3Cl)cccc12 [compound 27] | < 50 nM
46 | CCc1cc(C2CC2)ccc1-n1c(Br)nnc1SCC(=O)Nc1ccc(C(=O)O)cc1Cl [compound 29] | < 50 nM
47 | O=C(CSc1nnc(Br)n1-c1ccc(C2CC2)cc1C(F)(F)F)Nc1ccc(C(=O)O)cc1Cl [compound 30] | < 50 nM
48 | O=C(CSc1nnc(Br)n1-c1ccc(C2CC2)cc1Cl)Nc1ccc(C(=O)O)cc1Cl [compound 31] | < 50 nM
49 | O=C(CSc1nnc(Br)n1-c1cccc2c(OCC3CC3)cccc12)Nc1ccc(C(=O)O)cc1Cl [compound 32] | > 100 nM
50 | Cc1cc(C2CC2)cc(C)c1-n1c(Br)nnc1SCC(=O)Nc1ccc(C(=O)O)cc1Cl [compound 33] | < 50 nM
51 | NS(=O)(=O)c1ccc(NC(=O)CSc2nnc(C(F)F)n2-c2ccc3c4c(cccc24)CC3)c(Cl)c1 [compound 36] | < 50 nM
52 | NS(=O)(=O)c1ccc(NC(=O)CSc2nnc(Br)n2-c2ccc3c4c(cccc24)CC3)c(Cl)c1 [compound 37] | < 50 nM
53 | Cc1cc(S(N)(=O)=O)ccc1NC(=O)CSc1nnc(Br)n1-c1ccc2c3c(cccc13)CC2 [compound 38] | < 50 nM
54 | Cc1cc(S(N)(=O)=O)ccc1NC(=O)CSc1nnc(Br)n1-c1ccc(C2CC2)c2ccccc12 [compound 40] | < 50 nM
55 | CCc1ccc(-n2c(C)nnc2SCC(=O)Nc2ccc(S(N)(=O)=O)cc2C)c2c1CCCC2 [compound 41] | < 50 nM
56 | CCc1ccc(-n2c(C)nnc2SCC(=O)Nc2ccc(S(N)(=O)=O)cc2Cl)c2c1CCCC2 [compound 43] | < 50 nM
57 | NS(=O)(=O)c1ccc(NC(=O)CSc2nnc(C(F)F)n2-c2ccc(C3CC3)c3ccccc23)c(Cl)c1 [compound 44] | < 50 nM
58 | Cc1cc(S(N)(=O)=O)ccc1NC(=O)CSc1nnc(C)n1-c1ccc(C)c2c1CCCC2 [compound 45] | < 50 nM
59 | Cc1ccc(-n2c(C)nnc2SCC(=O)Nc2ccc(S(N)(=O)=O)cc2Cl)c2c1CCCC2 [compound 46] | < 50 nM
60 | CCc1ccc(-n2c(SCC(=O)Nc3ccc(S(N)(=O)=O)cc3Cl)nnc2C(F)F)c2c1CCCC2 [compound 47] | < 50 nM
61 | Cc1cc(S(N)(=O)=O)ccc1NC(=O)CSc1nnc(C(F)F)n1-c1ccc(C)c2c1CCCC2 [compound 48] | < 50 nM
62 | CCc1ccc(-n2c(CF)nnc2SCC(=O)Nc2ccc(S(N)(=O)=O)cc2C)c2ccccc12 [compound 49] | < 50 nM
63 | Cc1cc(C2CC2)c2ccccc2c1-n1c(Br)nnc1SCC(=O)Nc1ccc(S(N)(=O)=O)cc1Cl [compound 50] | < 50 nM

The compounds below were run on wild type HIV-1 (assay: microbe, parasite or virus in culture). Settings: Human immunodeficiency virus 1, Hela-JC53, read-out: EC50 WT.
Assay type: cell-based, human immunodeficiency virus type 1 (HIV-1)

Row | SMILES | EC50
64 | O=C(CSc1nnc(Br)n1-c1c(Cl)cc(C2CCC2)c2ccccc12)Nc1ccc(C(=O)O)cc1Cl [compound 25] | < 50 nM
65 | O=C(CSc1nnc(Br)n1-c1ccc(C2CCC2)c2ccccc12)Nc1ccc(C(=O)O)cc1Cl [compound 26] | < 50 nM
66 | COc1cccc2c(-n3c(Br)nnc3SCC(=O)Nc3ccc(C(=O)O)cc3Cl)cccc12 [compound 27] | < 50 nM
67 | CCc1cc(C2CC2)ccc1-n1c(Br)nnc1SCC(=O)Nc1ccc(C(=O)O)cc1Cl [compound 29] | < 50 nM
68 | O=C(CSc1nnc(Br)n1-c1ccc(C2CC2)cc1C(F)(F)F)Nc1ccc(C(=O)O)cc1Cl [compound 30] | < 50 nM
69 | O=C(CSc1nnc(Br)n1-c1ccc(C2CC2)cc1Cl)Nc1ccc(C(=O)O)cc1Cl [compound 31] | < 50 nM
70 | O=C(CSc1nnc(Br)n1-c1cccc2c(OCC3CC3)cccc12)Nc1ccc(C(=O)O)cc1Cl [compound 32] | > 100 nM
71 | Cc1cc(C2CC2)cc(C)c1-n1c(Br)nnc1SCC(=O)Nc1ccc(C(=O)O)cc1Cl [compound 33] | < 50 nM
72 | NS(=O)(=O)c1ccc(NC(=O)CSc2nnc(C(F)F)n2-c2ccc3c4c(cccc24)CC3)c(Cl)c1 [compound 36] | < 50 nM
73 | NS(=O)(=O)c1ccc(NC(=O)CSc2nnc(Br)n2-c2ccc3c4c(cccc24)CC3)c(Cl)c1 [compound 37] | < 50 nM
74 | Cc1cc(S(N)(=O)=O)ccc1NC(=O)CSc1nnc(Br)n1-c1ccc2c3c(cccc13)CC2 [compound 38] | < 50 nM
75 | Cc1cc(S(N)(=O)=O)ccc1NC(=O)CSc1nnc(Br)n1-c1ccc(C2CC2)c2ccccc12 [compound 40] | < 50 nM
76 | CCc1ccc(-n2c(C)nnc2SCC(=O)Nc2ccc(S(N)(=O)=O)cc2C)c2c1CCCC2 [compound 41] | < 50 nM
77 | CCc1ccc(-n2c(C)nnc2SCC(=O)Nc2ccc(S(N)(=O)=O)cc2Cl)c2c1CCCC2 [compound 43] | < 50 nM
78 | NS(=O)(=O)c1ccc(NC(=O)CSc2nnc(C(F)F)n2-c2ccc(C3CC3)c3ccccc23)c(Cl)c1 [compound 44] | < 50 nM
79 | Cc1cc(S(N)(=O)=O)ccc1NC(=O)CSc1nnc(C)n1-c1ccc(C)c2c1CCCC2 [compound 45] | < 50 nM
80 | Cc1ccc(-n2c(C)nnc2SCC(=O)Nc2ccc(S(N)(=O)=O)cc2Cl)c2c1CCCC2 [compound 46] | < 50 nM
81 | CCc1ccc(-n2c(SCC(=O)Nc3ccc(S(N)(=O)=O)cc3Cl)nnc2C(F)F)c2c1CCCC2 [compound 47] | < 50 nM
82 | Cc1cc(S(N)(=O)=O)ccc1NC(=O)CSc1nnc(C(F)F)n1-c1ccc(C)c2c1CCCC2 [compound 48] | < 50 nM
83 | CCc1ccc(-n2c(CF)nnc2SCC(=O)Nc2ccc(S(N)(=O)=O)cc2C)c2ccccc12 [compound 49] | < 50 nM
84 | Cc1cc(C2CC2)c2ccccc2c1-n1c(Br)nnc1SCC(=O)Nc1ccc(S(N)(=O)=O)cc1Cl [compound 50] | < 50 nM

From patent US8946273B2, “S-Triazolyl alpha-mercapto acetanilides as inhibitors of HIV reverse transcriptase” (priority 2011, dated 2015)
